US12077503B2, “Substituted cyclic amides and their use as herbicides” (FMC CORPORATION, priority 2015, dated 2024)

Key:
Format in all cases: in vivo
[1] = tested on: sedge, umbrella (small-flower umbrella sedge, Cyperus difformis); assay: Test B flooded paddy test; details: Flood, 500 g ai/ha; 0 to 100 scale where 0 is no effect and 100 is complete control; 13 to 15 d
Method in brief: (§1)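 Greenhouse paddy pots with 2-leaf stage plants received compound by direct addition to floodwater 3 cm deep, kept at that level. Scored visually at 13–15 d versus controls (0 no effect; 100 complete control).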

[2] = tested on: ducksalad (Heteranthera limosa); assay: Test B flooded paddy test; details: Flood, 500 g ai/ha; 0 to 100 scale where 0 is no effect and 100 is complete control; 13 to 15 d
Method in brief: as §1

[3] = tested on: barnyardgrass (Echinochloa crus-galli); assay: Test B flooded paddy test; details: Flood, 500 g ai/ha; 0 to 100 scale where 0 is no effect and 100 is complete control; 13 to 15 d
Method in brief: as §1

rice (Oryra sativa) = assay: Test B flooded paddy test; details: Flood, 500 g ai/ha; 0 to 100 scale where 0 is no effect and 100 is complete control; 13 to 15 d
Method in brief: as §1

[4] = tested on: pigweed (Amaranthus retroflexus); assay: Test A postemergence; details: postemergence; for Pigweed plant response rating: 125 g ai/ha, visual injury rating on 0 to 100 scale (0 no effect, 100 complete control), approx. 10 d; for Plant response rating, Pigweed: 500 g ai/ha, 0 to 100 scale, 0 no effect, 100 complete control
Method in brief: (§2)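 Seeded soil received test chemicals as a preemergence directed spray, and seedlings at one to two leaves, 2–10 cm tall, received them postemergence, in a non-phytotoxic, surfactant-containing solvent mixture. Pots were held in a greenhouse for approximately 10 d, then rated for injury from 0, no effect, to 100, complete control.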

[5] = tested on: Galium (catchweed bedstraw, Galium aparine); assay: Test A postemergence; details: postemergence; for Galium plant response rating: 125 g ai/ha, visual injury rating on 0 to 100 scale (0 no effect, 100 complete control), approx. 10 d; for Plant response rating, Galium: 500 g ai/ha, 0 to 100 scale, 0 no effect, 100 complete control
Method in brief: as §2

[6] = tested on: ryegrass, Italian (Italian ryegrass, Lolium multiflorum); assay: Test A postemergence; details: postemergence; for Ryegrass, Italian plant response rating: 125 g ai/ha, visual injury rating on 0 to 100 scale (0 no effect, 100 complete control), approx. 10 d; for Plant response rating, Ryegrass, Italian: 500 g ai/ha, 0 to 100 scale, 0 no effect, 100 complete control
Method in brief: as §2

[7] = tested on: giant foxtail (Setaria faberii); assay: Test A postemergence; details: postemergence; for Foxtail, Giant plant response rating: 125 g ai/ha, visual injury rating on 0 to 100 scale (0 no effect, 100 complete control), approx. 10 d; for Plant response rating, Foxtail, Giant: 500 g ai/ha, 0 to 100 scale, 0 no effect, 100 complete control
Method in brief: as §2

[8] = tested on: ragweed (common ragweed, Ambrosia elatior); assay: Test A postemergence; details: postemergence; for Ragweed plant response rating: 125 g ai/ha, visual injury rating on 0 to 100 scale (0 no effect, 100 complete control), approx. 10 d; for Plant response rating, Ragweed: 500 g ai/ha, 0 to 100 scale, 0 no effect, 100 complete control
Method in brief: as §2

[9] = tested on: blackgrass (Alopecurus myosuroides); assay: Test A postemergence; details: postemergence; for Blackgrass plant response rating: 125 g ai/ha, visual injury rating on 0 to 100 scale (0 no effect, 100 complete control), approx. 10 d; for Plant response rating, Blackgrass: 500 g ai/ha, 0 to 100 scale, 0 no effect, 100 complete control
Method in brief: as §2

[10] = tested on: barnyardgrass (Echinochloa crus-galli); assay: Test A postemergence; details: postemergence; for Barnyardgrass plant response rating: 125 g ai/ha, visual injury rating on 0 to 100 scale (0 no effect, 100 complete control), approx. 10 d; for Plant response rating, Barnyardgrass: 500 g ai/ha, 0 to 100 scale, 0 no effect, 100 complete control
Method in brief: as §2

Kochia (Kochia scoparia) [11] = assay: Test A postemergence; details: postemergence; for Kochia plant response rating: 125 g ai/ha, visual injury rating on 0 to 100 scale (0 no effect, 100 complete control), approx. 10 d; for Plant response rating, Kochia: 500 g ai/ha, 0 to 100 scale, 0 no effect, 100 complete control
Method in brief: as §2

corn (Zea mays) = assay: Test A postemergence; details: postemergence; for Corn plant response rating: 125 g ai/ha, visual injury rating on 0 to 100 scale (0 no effect, 100 complete control), approx. 10 d; for Plant response rating, Corn: 500 g ai/ha, 0 to 100 scale, 0 no effect, 100 complete control
Method in brief: as §2

[12] = tested on: wheat (Triticum aestivum); assay: Test A postemergence; details: postemergence; for Wheat plant response rating: 125 g ai/ha, visual injury rating on 0 to 100 scale (0 no effect, 100 complete control), approx. 10 d; for Plant response rating, Wheat: 500 g ai/ha, 0 to 100 scale, 0 no effect, 100 complete control
Method in brief: as §2

[13] = tested on: pigweed (Amaranthus retroflexus); assay: Test A preemergence; details: for Plant response rating, Pigweed: 125 g ai/ha, preemergence, 0 to 100 scale (0 no effect, 100 complete control); for Pigweed plant response rating (0 to 100 scale, 0 is no effect, 100 is complete control): Preemergence, 500 g ai/ha, visual injury approx. 10 d
[14] = tested on: ryegrass, Italian (Italian ryegrass, Lolium multiflorum); assay: Test A preemergence; details: for Plant response rating, Ryegrass, Italian: 125 g ai/ha, preemergence, 0 to 100 scale (0 no effect, 100 complete control); for Ryegrass, Italian plant response rating (0 to 100 scale, 0 is no effect, 100 is complete control): Preemergence, 500 g ai/ha, visual injury approx. 10 d
Method in brief: as §2

[15] = tested on: giant foxtail (Setaria faberii); assay: Test A preemergence; details: for Plant response rating, Foxtail, Giant: 125 g ai/ha, preemergence, 0 to 100 scale (0 no effect, 100 complete control); for Foxtail, Giant plant response rating (0 to 100 scale, 0 is no effect, 100 is complete control): Preemergence, 500 g ai/ha, visual injury approx. 10 d
Method in brief: as §2

[16] = tested on: ragweed (common ragweed, Ambrosia elatior); assay: Test A preemergence; details: for Plant response rating, Ragweed: 125 g ai/ha, preemergence, 0 to 100 scale (0 no effect, 100 complete control); for Ragweed plant response rating (0 to 100 scale, 0 is no effect, 100 is complete control): Preemergence, 500 g ai/ha, visual injury approx. 10 d
Method in brief: as §2

[17] = tested on: barnyardgrass (Echinochloa crus-galli); assay: Test A preemergence; details: for Plant response rating, Barnyardgrass: 125 g ai/ha, preemergence, 0 to 100 scale (0 no effect, 100 complete control); for Barnyardgrass plant response rating (0 to 100 scale, 0 is no effect, 100 is complete control): Preemergence, 500 g ai/ha, visual injury approx. 10 d
Method in brief: as §2

Kochia (Kochia scoparia) [18] = assay: Test A preemergence; details: for Plant response rating, Kochia: 125 g ai/ha, preemergence, 0 to 100 scale (0 no effect, 100 complete control); for Kochia plant response rating (0 to 100 scale, 0 is no effect, 100 is complete control): Preemergence, 500 g ai/ha, visual injury approx. 10 d
Method in brief: as §2

Structure (SMILES) | Plant response rating, Sedge, Umbrella [1] | Plant response rating, Ducksalad [2] | Plant response rating, Barnyardgrass [3] | Plant response rating, Rice (rice (Oryra sativa)) | Pigweed plant response rating [4] | Plant response rating, Pigweed [4] | Galium plant response rating [5] | Plant response rating, Galium [5] | Ryegrass, Italian plant response rating [6] | Plant response rating, Ryegrass, Italian [6] | Foxtail, Giant plant response rating [7] | Plant response rating, Foxtail, Giant [7] | Ragweed plant response rating [8] | Plant response rating, Ragweed [8] | Blackgrass plant response rating [9] | Plant response rating, Blackgrass [9] | Barnyardgrass plant response rating [10] | Plant response rating, Barnyardgrass [10] | Kochia plant response rating (Kochia (Kochia scoparia) [11]) | Plant response rating, Kochia (Kochia (Kochia scoparia) [11]) | further results
O=C1NCC(c2ccc(F)c(F)c2)C1C(=O)Nc1ccc(Cl)cc1F (stereo not drawn) [Compound 410] | 0 | 30 | 0 | 0 | 0 | 20 | 0 | 0 | 0 | 0 | 0 | 40 | 0 | 0 | 0 | 20 | 20 | 50 | 0 | 0 | Corn plant response rating (corn (Zea mays)): 0; Plant response rating, Corn (corn (Zea mays)): 0; Wheat plant response rating [12]: 0; Plant response rating, Wheat [12]: 0; Plant response rating, Pigweed [13]: 0; Pigweed plant response rating (0 to 100 scale, 0 is no effect, 100 is complete control) [13]: 20; Plant response rating, Ryegrass, Italian [14]: 0; Ryegrass, Italian plant response rating (0 to 100 scale, 0 is no effect, 100 is complete control) [14]: 0; Plant response rating, Foxtail, Giant [15]: 70; Foxtail, Giant plant response rating (0 to 100 scale, 0 is no effect, 100 is complete control) [15]: 80; Plant response rating, Ragweed [16]: 0; Ragweed plant response rating (0 to 100 scale, 0 is no effect, 100 is complete control) [16]: 0; Plant response rating, Barnyardgrass [17]: 50; Barnyardgrass plant response rating (0 to 100 scale, 0 is no effect, 100 is complete control) [17]: 60; Plant response rating, Kochia (Kochia (Kochia scoparia) [18]): 0; Kochia plant response rating (0 to 100 scale, 0 is no effect, 100 is complete control) (Kochia (Kochia scoparia) [18]): 0
Cc1cc(NC(=O)C2C(=O)NCC2c2ccc(F)c(F)c2)ccc1C(F)(F)F (stereo not drawn) [Compound 414] | 0 | 40 | 0 | 0 | 0 | 0 | 0 | 0 | 0 | 0 | 0 | 0 | 0 | 0 | 0 | 0 | 0 | 0 | 0 | 10 | Corn plant response rating (corn (Zea mays)): 0; Plant response rating, Corn (corn (Zea mays)): 0; Wheat plant response rating [12]: 0; Plant response rating, Wheat [12]: 0; Plant response rating, Pigweed [13]: 0; Pigweed plant response rating (0 to 100 scale, 0 is no effect, 100 is complete control) [13]: 0; Plant response rating, Ryegrass, Italian [14]: 0; Ryegrass, Italian plant response rating (0 to 100 scale, 0 is no effect, 100 is complete control) [14]: 0; Plant response rating, Foxtail, Giant [15]: 0; Foxtail, Giant plant response rating (0 to 100 scale, 0 is no effect, 100 is complete control) [15]: 10; Plant response rating, Ragweed [16]: 0; Ragweed plant response rating (0 to 100 scale, 0 is no effect, 100 is complete control) [16]: 0; Plant response rating, Barnyardgrass [17]: 0; Barnyardgrass plant response rating (0 to 100 scale, 0 is no effect, 100 is complete control) [17]: 0; Plant response rating, Kochia (Kochia (Kochia scoparia) [18]): 0; Kochia plant response rating (0 to 100 scale, 0 is no effect, 100 is complete control) (Kochia (Kochia scoparia) [18]): 0
COc1cccc(NC(=O)C2C(=O)NCC2c2ccc(F)c(F)c2)c1F (stereo not drawn) [Compound 416] | 0 | 50 | 0 | 15 | 0 | 0 | 0 | 0 | 0 | 0 | 0 | 0 | 0 | 0 | 0 | 0 | 0 | 0 | 0 | 0 | Corn plant response rating (corn (Zea mays)): 0; Plant response rating, Corn (corn (Zea mays)): 0; Wheat plant response rating [12]: 0; Plant response rating, Wheat [12]: 0; Plant response rating, Pigweed [13]: 0; Pigweed plant response rating (0 to 100 scale, 0 is no effect, 100 is complete control) [13]: 0; Plant response rating, Ryegrass, Italian [14]: 0; Ryegrass, Italian plant response rating (0 to 100 scale, 0 is no effect, 100 is complete control) [14]: 0; Plant response rating, Foxtail, Giant [15]: 0; Foxtail, Giant plant response rating (0 to 100 scale, 0 is no effect, 100 is complete control) [15]: 50; Plant response rating, Ragweed [16]: 0; Ragweed plant response rating (0 to 100 scale, 0 is no effect, 100 is complete control) [16]: 0; Plant response rating, Barnyardgrass [17]: 0; Barnyardgrass plant response rating (0 to 100 scale, 0 is no effect, 100 is complete control) [17]: 0; Plant response rating, Kochia (Kochia (Kochia scoparia) [18]): 0; Kochia plant response rating (0 to 100 scale, 0 is no effect, 100 is complete control) (Kochia (Kochia scoparia) [18]): 0
O=C1NCC(c2cccc(OC(F)F)c2)C1C(=O)Nc1cccc(OC(F)F)c1 (stereo not drawn) [Compound 422] | 0 | 50 | 0 | 0 | 40 | 60 | 30 | 70 | 0 | 0 | 50 | 60 | 0 | 0 | 30 | 50 | 50 | 60 | 50 | 60 | Corn plant response rating (corn (Zea mays)): 0; Plant response rating, Corn (corn (Zea mays)): 0; Wheat plant response rating [12]: 0; Plant response rating, Wheat [12]: 0; Plant response rating, Pigweed [13]: 20; Pigweed plant response rating (0 to 100 scale, 0 is no effect, 100 is complete control) [13]: 30; Plant response rating, Ryegrass, Italian [14]: 0; Ryegrass, Italian plant response rating (0 to 100 scale, 0 is no effect, 100 is complete control) [14]: 0; Plant response rating, Foxtail, Giant [15]: 60; Foxtail, Giant plant response rating (0 to 100 scale, 0 is no effect, 100 is complete control) [15]: 70; Plant response rating, Ragweed [16]: 0; Ragweed plant response rating (0 to 100 scale, 0 is no effect, 100 is complete control) [16]: 0; Plant response rating, Barnyardgrass [17]: 40; Barnyardgrass plant response rating (0 to 100 scale, 0 is no effect, 100 is complete control) [17]: 70; Plant response rating, Kochia (Kochia (Kochia scoparia) [18]): 0; Kochia plant response rating (0 to 100 scale, 0 is no effect, 100 is complete control) (Kochia (Kochia scoparia) [18]): 0
